Measurements from patent US20250352553A1, “TREATMENT OF HOSPITAL-ACQUIRED BACTERIAL PNEUMONIA AND VENTILATOR-ASSOCIATED BACTERIAL PNEUMONIA CAUSED BY SUSCEPTIBLE ISOLATES OF ACINETOBACTER BAUMANNII-CALCOACETICUS COMPLEX” (Entasis Therapeutics, Inc., priority 2024, published 2025).

Assays:
[1] = tested on: Acinetobacter baumannii-calcoaceticus complex; type: in vivo, human; settings: Part A, CRABC m-MITT Population
Method: The Phase 3 trial employed a non-inferiority design, as discussed and agreed with the FDA DAI. A Test of Cure (TOC) visit was completed 7±2 days after the last dose, and survival was assessed at Day 28.
Patients were treated with either XACDURO® (1 g sulbactam and 1 g durlobactam, or renally adjusted dose) intravenously over 3 hours every 6 hours (n=91) or colistin 2.5 mg/kg (or renally adjusted dose) intravenously over 30 minutes every 12 hours after an initial loading dose of colistin 2.5 to 5 mg/kg (n=86). Both treatment arms also received 1 g imipenem/1 g cilastatin (or renally adjusted dose) intravenously every 6 hours as background therapy for potential HABP/VABP pathogens other than Acinetobacter baumannii-calcoaceticus complex. Patients received up to 14 days of therapy.
Part A was a randomized, assessor-blinded, comparative portion of the Phase 3 trial. Patients were randomized (1:1) to 1.0 g sulbactam/1.0 g durlobactam or 2.5 mg/kg colistin. All patients in both treatment groups received 1.0 g imipenem/1.0 g cilastatin as background therapy to treat non-ABC co-infecting pathogens.
Randomization was stratified by infection type (HABP/VABP/ventilated pneumonia [VP] vs bacteremia), severity of illness, and geography.
Eligible patients were ≥18 years of age with a diagnosis of a serious infection caused by ABC as either a single pathogen or member of a polymicrobial infection confirmed by culture.
Non-inferiority was concluded if the upper limit of the 2-sided 95% CI was <20%.
Secondary efficacy endpoints for Parts A and B included: 28-day all-cause mortality in the m-MITT and ITT Populations, 14-day all-cause mortality in the CRABC m-MITT and m-MITT Populations, Clinical cure at TOC, End of Treatment (EOT), and Late Follow-Up (LFU) in the CRABC m-MITT Population, and Microbiological favorable assessment at TOC, EOT, and LFU in the CRABC m-MITT Population.

[2] = tested on: Acinetobacter baumannii-calcoaceticus complex; settings: colistin-based therapy, cited from earlier work
[3] = in vivo
Method: The modified RIFLE criteria includes: Risk (R): increased creatinine level 1.5× or glomerular filtration rate (GFR) decreased >25%, • Injury (I): increased creatinine level 2× or GFR decreased >50%, Failure (F): increased creatinine level 3×, GFR decreased >75%, or creatinine level ≥4 mg/dL, Loss (L): persistent acute renal failure or complete loss of function for >4 weeks, and End-Stage Kidney Disease (ESKD; E): ESKD for >3 months.

colistin
28-day all-cause mortality [1]: 32.3%
clinical cure rate at TOC ([1]; Test of Cure visit): 40.3%
microbiological favorable assessment at TOC ([1]; eradication and presumed eradication): 41.9%
mortality rate, random effects analysis ([2]; literature review, DerSimonian and Laird, 95% CI 32%, 47%): 40%
mortality rate, fixed effects analysis ([2]; literature review, 95% CI 35%, 45%): 40%
mortality rate, random effects meta-analysis updated with 4 additional studies ([2]; 95% CI 36%, 47%): 41%
incidence of nephrotoxicity (modified RIFLE criteria) [3]: 37.6%
